Data on two compounds can be found in patent US20220071985A1, “QUINOLINE DERIVATIVES FOR USE IN THE TREATMENT OR PREVENTION OF CANCER” (ABIVAX, priority 2018, published 2022).

pIC50: −log10 of the molar value.

What all share (format): cell-based
The test system of experiment [1] is CR0205 cell line (Large intestine/Colorectum). Nature of the experiment: CellTiter-Glo cell viability assay, CR0205. The note with it: Homo sapiens, 168 h, 7 days drug treatment. As for the experimental part: (§1) All cell lines are hyman primary cell lines cultured in DMEM/F12+10% FBS+supplemental growth factors, at 37° C. with 5% C02, as explained below. The cell lines are from large intestine/colorectum, stomach, liver, lung or pancreas (see table below). • DMEM/F12 (high glucose) (Gibco, Cat #11320033) • FBS (Cat #FND500, ExCell Bio) • CellTiter-Glo® Luminescent Cell Viability Assay (Cat # G7571, Promega. Stored at −20° C.). • 96 wells plate (Cat #3610, Corning) • DMEM/F12 medium (low glucose): 1:1 mixture of DMEM (low glucose) (Gibco, Cat #11885076) and F-12K (Gibco, Cat #21127022)
(§2) 1. Each well of a 96-well plate contains 90 μL of cell suspension with cells. The number of cells to be seeded is determined on the basis of a Cell Density Optimization Assay. 2. All 96-wells plates with cells are placed in an incubator overnight at 37° C. with 5% CO2.
(§3) 3. Dilute ABX464 and add 10 μL/well of ABX464 at the concentrations indicated (see plate map below). The final volume is 100 μL/well.
(§4) 4. Replace the old medium by pre-prepared fresh medium with ABX464 at the same concentrations indicated. The final volume is 100 μL/well.
(§5) 5. Cells are observed under a microscope ensuring the cells treated with vehicle control are in good condition. 6. Add 50 μL of CellTiter-Glo® Reagent to each well. 7. […] Record luminescence using an EnVision Multi Label Reader. […]
Background: ATP-based viability assays read luminescence as a measure of living cells.

Experiment [2] relates to CR3085 cell line (Large intestine/Colorectum). The experiment is described as follows: CellTiter-Glo cell viability assay, CR3085. The note with it: Homo sapiens. As for the experimental part: as §1
(§6) Two types of cell lines have been tested for the compound 26, namely CR3085 (Large intestine/Colorectum) and GA0060 (stomach), as shown below.
as §2, §3, §4
(§7) 5. Cells are observed under a microscope ensuring the cells treated with vehicle control are in good condition. 6. Add 50 μL of CellTiter-Glo® Reagent to each well. 7. Mix contents for 2 minutes on an orbital shaker to facilitate cell lysis. 8. Allow the plate to incubate at room temperature for 10 minutes to stabilize luminescent signals. 9. Record luminescence using an EnVision Multi Label Reader.
(§8) Data analysis is performed using GraphPad Prism 7.0. To calculate IC50s, a dose-response curve is generated using a nonlinear regression model with a sigmoidal dose response. The formula of surviving rate is shown below, and the IC50s will be automatically generated by GraphPad Prism 7.0.
(§9) LumNone treated-LumMedium control is set as 100%.

The subject of experiment [3] is CR3150 cell line (Large intestine/Colorectum). Nature of the experiment: CellTiter-Glo cell viability assay, CR3150. Conditions: Homo sapiens, 168 h, 7 days drug treatment. Here is the method: as §1, §2, §3, §4, §5
Experiment [4] deals with GA0060 cell line (Stomach). Nature of the experiment: CellTiter-Glo cell viability assay, GA0060. Conditions: Homo sapiens. As for the experimental part: as §1, §6, §2, §3, §4, §7, §8, §9
The test system of another experiment is LI0612 cell line (Liver). The experiment is described as follows: CellTiter-Glo cell viability assay, LI0612. Conditions: Homo sapiens, 168 h, 7 days drug treatment. Here is the method:
as §1, §2, §3, §4, §5

Another experiment relates to LU0387 cell line (Lung). The experiment is described as follows: CellTiter-Glo cell viability assay, LU0387. The note with it: Homo sapiens, 168 h, 7 days drug treatment. Here is the method: as §1, §2, §3, §4, §5
The next experiment relates to LU2511 cell line (Lung). The experiment is described as follows: CellTiter-Glo cell viability assay, LU2511. Conditions: Homo sapiens, 168 h, 7 days drug treatment. Here is the method: as §1, §2, §3, §4, §5
For experiment [5], the system named is PA0692 cell line (Pancreas). The experiment is described as follows: CellTiter-Glo cell viability assay, PA0692. The note with it: Homo sapiens, 168 h, 7 days drug treatment. As for the experimental part:
as §1, §2, §3, §4, §5

The subject of experiment [6] is PA1266 cell line (Pancreas). The experiment is described as follows: CellTiter-Glo cell viability assay, PA1266. Conditions: Homo sapiens, 168 h, 7 days drug treatment. Here is the method: as §1, §2, §3, §4, §5
The subject of experiment [7] is PA1405 cell line (Pancreas). The experiment is described as follows: CellTiter-Glo cell viability assay, PA1405. The note with it: Homo sapiens, 168 h, 7 days drug treatment. Here is the method: as §1, §2, §3, §4, §5
Experiment [8] deals with PA3060 cell line (Pancreas). Nature of the experiment: CellTiter-Glo cell viability assay, PA3060. The note with it: Homo sapiens, 168 h, 7 days drug treatment. As for the experimental part:
as §1, §2, §3, §4, §5

Where [9] appears, read: 168 h, CR3085, Large intestine/Colorectum, 7 days drug treatment, CellTiter-Glo.
[10] abbreviates: 168 h, GA0060, Stomach, 7 days drug treatment, CellTiter-Glo.

On to `FC(F)(F)Oc1ccc(Nc2ccc3cccc(Cl)c3n2)cc1` [ABX464, 8-Chloro-N-(4-(trifluoromethoxy)phenyl)quinolin-2-amine], for which the pIC50 – broadly, −log10 of the IC50, conventionally taken in molar units – is 5.14 in [1]; 7.10 in experiment [2] (setting [9]); 6.06 in [3]; 6.22 in experiment [4] (setting [10]); 5.32 in the experiment on LI0612 cell line (Liver); 5.02 with LU0387 cell line (Lung). Also, the pIC50 with LU2511 cell line (Lung) was 5.15; in experiment [5] it was 5.02; in experiment [6], 5.46; in [7] it was 5.21; in experiment [8], 5.43.

For the compound `FC(F)(F)c1ccc(Nc2ccc3cccc(Cl)c3n2)nc1` [Comparative compound 26, 8-chloro-N-(5-(trifluoromethyl)pyridin-2-yl)quinolin-2-amine], the pIC50 is 6.77 in experiment [2] (setting [9]); 6.77 in [2] (cell line Large intestine/Colorectum CR3085, restated in text without unit); under 5.00 in [4] (setting [10]); under 5.00 in experiment [4] (cell line stomach GA0060, restated in text without unit).
